Reference: US4528296A, “Derivatives of aminopyridinecarboxylic acids and pharmaceutical compositions containing them” (Simes, Societa Italiana Medicinalle Sintetici, priority 1982, dated 1985)

How the values were obtained:
mice = test: Acute toxicity in mice after oral administration; assay type: in vivo
From the text: (§1) The acute toxicity of compounds of this invention has been evaluated after oral administration in mice

enkephalinase [1] = target: T1, enkephalinase (Rattus norvegicus, UniProt P07861); test: Inhibition of enkephalinase, particulate fraction of rat striata, 3H-Tyr-Leucine-Enkephalin substrate; assay type: biochemical, rats; settings: read-out: Drug concentration which inhibits 50% of the enzymatic activities (IC50(M)), Enkephalinase
T1 construct: enzymatic preparation extracted from the particulate fraction of striata of rats; from tissue; host or cells: rat striatum, particulate fraction purified on discontinuous sucrose gradient
T1 sequence (P07861 1-750): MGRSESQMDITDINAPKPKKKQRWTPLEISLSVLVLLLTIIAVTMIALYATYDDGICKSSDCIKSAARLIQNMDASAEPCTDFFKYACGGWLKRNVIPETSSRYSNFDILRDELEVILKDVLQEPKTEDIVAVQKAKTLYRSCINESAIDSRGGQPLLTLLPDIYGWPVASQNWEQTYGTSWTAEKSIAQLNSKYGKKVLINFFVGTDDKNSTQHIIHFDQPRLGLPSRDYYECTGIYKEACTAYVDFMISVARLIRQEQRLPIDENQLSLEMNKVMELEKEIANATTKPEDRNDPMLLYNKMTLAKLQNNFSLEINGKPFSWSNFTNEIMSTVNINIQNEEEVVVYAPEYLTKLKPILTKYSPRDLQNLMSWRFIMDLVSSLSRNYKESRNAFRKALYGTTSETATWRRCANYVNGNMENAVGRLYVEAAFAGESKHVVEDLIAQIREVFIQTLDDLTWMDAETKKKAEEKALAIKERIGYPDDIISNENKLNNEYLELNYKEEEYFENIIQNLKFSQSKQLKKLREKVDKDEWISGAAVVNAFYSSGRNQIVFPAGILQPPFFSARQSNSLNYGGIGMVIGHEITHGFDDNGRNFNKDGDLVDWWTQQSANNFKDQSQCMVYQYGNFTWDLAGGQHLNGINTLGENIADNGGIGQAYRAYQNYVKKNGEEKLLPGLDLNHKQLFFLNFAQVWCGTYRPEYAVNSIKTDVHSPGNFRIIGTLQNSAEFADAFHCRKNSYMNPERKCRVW
From the text: The evaluation of the inhibitory effect on enkephalinase and on aminopeptidase activity respectively has been made as follows:
(a) enkephalinase: it has been used the enzymatic preparation extracted from the particulate fraction of striata of rats purified on discontinous gradient of sucrose (Blumberg et al., Life Sci., 28, (1981), 301); the evaluation of the enzymatic activity has been made using ^3 H-Tyr-Leucine-Enkephalin as substrate (Vogel and Alstein, FEBS Lett., 80, (1977), 332).

amino peptidase = target: T2, amino peptidase (Rattus norvegicus, UniProt F1M9V7); test: Inhibition of amino peptidase, soluble fraction of rat striata, 3H-Tyr-Leucine-Enkephalin substrate; assay type: biochemical, rats; settings: read-out: Drug concentration which inhibits 50% of the enzymatic activities (IC50(M)), Amino Peptidase
T2 construct: as enzyme source it has been used the soluble fraction of point (a) above; from tissue; host or cells: rat striatum, soluble fraction
T2 sequence (F1M9V7 1-920): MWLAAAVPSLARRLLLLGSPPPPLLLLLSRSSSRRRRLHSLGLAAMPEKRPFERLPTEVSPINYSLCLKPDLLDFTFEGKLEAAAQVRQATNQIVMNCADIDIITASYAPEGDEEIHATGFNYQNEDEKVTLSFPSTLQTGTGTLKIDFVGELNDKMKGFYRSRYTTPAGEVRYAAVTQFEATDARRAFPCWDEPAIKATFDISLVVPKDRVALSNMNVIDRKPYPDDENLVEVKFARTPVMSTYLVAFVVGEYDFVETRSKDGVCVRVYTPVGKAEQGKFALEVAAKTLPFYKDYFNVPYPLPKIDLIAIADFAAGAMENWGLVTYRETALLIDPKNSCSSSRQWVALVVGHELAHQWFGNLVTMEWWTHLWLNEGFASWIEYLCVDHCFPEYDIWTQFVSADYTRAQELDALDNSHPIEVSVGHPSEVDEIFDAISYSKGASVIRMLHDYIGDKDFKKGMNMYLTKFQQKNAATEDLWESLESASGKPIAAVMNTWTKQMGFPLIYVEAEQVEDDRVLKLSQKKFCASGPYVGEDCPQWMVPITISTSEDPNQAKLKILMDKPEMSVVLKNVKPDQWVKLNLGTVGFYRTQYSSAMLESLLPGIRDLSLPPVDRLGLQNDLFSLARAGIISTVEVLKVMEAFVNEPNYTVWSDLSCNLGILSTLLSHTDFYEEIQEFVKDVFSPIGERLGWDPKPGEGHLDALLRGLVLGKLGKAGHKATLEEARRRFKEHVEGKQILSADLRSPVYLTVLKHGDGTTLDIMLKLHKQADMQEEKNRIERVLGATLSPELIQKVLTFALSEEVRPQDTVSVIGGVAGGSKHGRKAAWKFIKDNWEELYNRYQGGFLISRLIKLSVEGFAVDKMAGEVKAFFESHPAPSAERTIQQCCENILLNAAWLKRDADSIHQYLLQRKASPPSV
From the text: The evaluation of the inhibitory effect on enkephalinase and on aminopeptidase activity respectively has been made as follows: […]

enkephalinase [2] = target: T3, enkephalinase (Mus musculus, UniProt Q61391); test: Potentiation of Met-Enk analgesia in mice, hot plate test, intracerebral administration; assay type: in vivo
T3 construct: potentiation of the analgesic effect induced in mice by Methionine-Enkephalin; from tissue; host or cells: endogenous enzyme in the brain of living mice (intracerebral administration)
T3 sequence (Q61391 1-750): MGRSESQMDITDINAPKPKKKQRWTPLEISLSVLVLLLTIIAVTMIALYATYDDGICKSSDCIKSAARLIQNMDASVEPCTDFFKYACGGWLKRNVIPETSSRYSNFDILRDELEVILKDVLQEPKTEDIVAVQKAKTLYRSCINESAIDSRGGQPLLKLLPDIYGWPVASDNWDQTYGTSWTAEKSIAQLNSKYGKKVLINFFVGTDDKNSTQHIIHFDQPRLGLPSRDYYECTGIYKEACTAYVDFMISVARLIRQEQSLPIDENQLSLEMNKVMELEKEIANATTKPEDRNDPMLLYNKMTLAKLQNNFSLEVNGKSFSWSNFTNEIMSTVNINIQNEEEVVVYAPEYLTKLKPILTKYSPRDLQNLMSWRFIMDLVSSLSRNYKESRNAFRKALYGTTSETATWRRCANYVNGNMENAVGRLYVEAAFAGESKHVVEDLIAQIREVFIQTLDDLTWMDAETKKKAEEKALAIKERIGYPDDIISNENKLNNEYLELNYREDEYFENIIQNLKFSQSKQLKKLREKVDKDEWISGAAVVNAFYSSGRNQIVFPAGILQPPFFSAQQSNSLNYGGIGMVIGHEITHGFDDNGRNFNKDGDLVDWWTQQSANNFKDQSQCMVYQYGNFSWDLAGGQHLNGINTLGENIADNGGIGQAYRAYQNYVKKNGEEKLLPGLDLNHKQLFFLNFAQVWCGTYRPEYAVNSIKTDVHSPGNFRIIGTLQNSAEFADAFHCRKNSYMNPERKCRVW

[3] = Acute toxicity in mice after oral administration; assay type: in vivo; settings: mouse, in vivo
From the text: as §1

[4] = Met-Enk 50 μg/ic + compound 12,5 μg/ic
[5] = Met-Enk 50 μg/ic + compound 25 μg/ic
[6] = Met-Enk 50 μg/ic + compound 50 μg/ic

Row | Molecule | IC50 (enkephalinase [1]) [M] | IC50 (amino peptidase) [M] | other results
1 | 2-(2-acetylthiomethyl-propionamido)-picolinic acid [Example 26] |  |  | LD50 (mice): 421 mg/kg
2 | CC(C)C[C@H](NC(=O)[C@@H](O)[C@H](N)Cc1ccccc1)C(=O)O [Bestatin, reference compound] | > 1e-06 | 2e-07 | 
3 | C[C@H](CS)C(=O)N1CCC[C@H]1C(=O)O [Captopril, 1,-(3-mercapto-2-methyl-1-oxopropyl)-L-proline, reference compound] | > 1e-06 | > 1e-06 | 
4 | COC(=O)c1cncc(N(C)C(=O)C(C)CSC(C)=O)c1 (stereo not shown) [Example 16, methyl 5-(2-acetylthiomethyl-N-methyl-propionamido)-nicotinate] | 7e-07 | > 1e-06 | Latency Time X ± SE (sec) (enkephalinase [2]; Met-Enk 50 μg/ic + compound 5 μg/ic): 14,8 ± 1,1 sec
5 | COC(=O)c1ncccc1NC(=O)C(C)CSC(C)=O (stereo not shown) [Example 24, methyl 3-(2-acetylthiomethyl-propionamido)-picolinate] |  |  | LD50 [3]: 390 mg/kg
6 | COC(=O)c1ncccc1NC(=O)C(C)CS (stereo not shown) [Example 25, methyl 3-(2-mercaptomethyl-propionamido)-picolinate] |  |  | LD50 [3]: 329 mg/kg
7 | Methionine-Enkephalin [Met--Enk, reference compound] |  |  | Latency Time X ± SE (sec) (enkephalinase [2]; Met-Enk alone 50 μg/ic): 14,7 ± 1,3 sec

Second part, led by results:

Row | IC50 (enkephalinase [1]) [M] | IC50 (amino peptidase) [M] | Molecule | other results
8 | 5e-07 | > 1e-06 | CC(CS)C(=O)Nc1ccc(C(=O)O)cn1 (stereo not shown) [Example 8, 6-(2-mercaptomethyl-propionamido)-nicotinic acid] | Latency Time X ± SE (sec) (enkephalinase [2]; [4]): 19,6 ± 2,1 sec
9 | 2e-07 | > 1e-06 | COC(=O)c1cncc(NC(=O)C(C)CS)c1 (stereo not shown) [Example 13, methyl 5-(2-mercaptomethyl-propionamido)-nicotinate] | 
10 | 5e-08 | > 1e-06 | CC(CS)C(=O)Nc1cncc(C(=O)O)c1 (stereo not shown) [Example 14, 5-(2-mercaptomethyl-propionamido)-nicotinic acid] | Latency Time X ± SE (sec) (enkephalinase [2]; [5]): 27,7 ± 1,5 sec
11 | 1e-07 | > 1e-06 | CC(CS)C(=O)N(C)c1cncc(C(=O)O)c1 (stereo not shown) [Example 17, 5-(2-mercaptomethyl-N-methyl-propionamido)-nicotinic acid] | Latency Time X ± SE (sec) (enkephalinase [2]; [6]): 13,8 ± 1,4 sec
12 | 3e-07 | > 1e-06 | C[C@H](CSC(=O)c1ccccc1)C(=O)Nc1cncc(C(=O)O)c1 [Example 18a, S(-)-5-(2-benzoylthiomethyl-propionamido)-nicotinic acid] | Latency Time X ± SE (sec) (enkephalinase [2]; [6]): 13,1 ± 0,9 sec
13 | 2e-07 | > 1e-06 | CC(CS)C(=O)Nc1ccc(C(=O)O)nc1 (stereo not shown) [Example 23, 5-(2-mercaptomethyl-propionamido)-picolinic acid] | Latency Time X ± SE (sec) (enkephalinase [2]; [5]): 26,1 ± 2,1 sec
14 | 1.8e-09 | > 1e-06 | O=C(O)c1ccnc(NC(=O)C(CS)Cc2ccccc2)c1 (stereo not shown) [Example 28, 2-(2-mercaptomethyl-3-phenyl-propionamido)-isonicotinic acid] | Latency Time X ± SE (sec) (enkephalinase [2]; [6]): 27,0 ± 1,6 sec
15 | 5e-07 | > 1e-06 | CC(CS)C(=O)Nc1cc(C(=O)O)ccn1 (stereo not shown) [Example 31, 2-(2-mercaptomethyl-propionamido)-isonicotinic acid] | Latency Time X ± SE (sec) (enkephalinase [2]; [4]): 15,4 ± 1,2 sec
